Results from patent US8481556B2, “Piperidinone carboxamide azaindane CGRP receptor antagonists” (Merck, Sharp & Dohms, Corp., priority 2010, dated 2013).
pKi: −log10 of the molar value. Structures can show the parent of a compound that is named as a salt. Ends that are not written are not given here.

How the values were obtained:
migraine = conditions: cited from earlier work
facial blood flow [1] = conditions: marmoset, electrical stimulation of the trigeminal ganglion (Doods et al. 2000); cited from earlier work
[2] = target: T1, recombinant human CL receptor/RAMP1 (Homo sapiens, UniProt O60894+Q16602); assay: Recombinant receptor binding assay (125I-hCGRP); conditions: exemplary compounds of the invention
T1 construct: expressed in transfected cells; membranes used
Experimental: Human CL receptor (Genbank accession number L76380) was subcloned into the expression vector pIREShyg2 (BD Biosciences Clontech) as a 5′NheI and 3′ PmeI fragment. Human RAMP1 (Genbank accession number AJ001014) was subcloned into the expression vector pIRESpuro2 (BD Biosciences Clontech) as a 5′NheI and 3′NotI fragment. […] Cells were subcultured by treatment with 0.25% trypsin with 0.1% EDTA in HBSS. Stable cell line generation was accomplished by co-transfecting 10 μg of DNA with 30 μg Lipofectamine 2000 (Invitrogen) in 75 cm^2 flasks. CL receptor and RAMP1 expression constructs were co-transfected in equal amounts. Twenty-four hours after transfection the cells were diluted and selective medium (growth medium+300 μg/mL hygromycin and 1 μg/mL puromycin) was added the following day. A clonal cell line was generated by single cell deposition utilizing a FACS Vantage SE (Becton Dickinson). Growth medium was adjusted to 150 μg/mL hygromycin and 0.5 μg/mL puromycin for cell propagation.
The cell suspension was disrupted with a laboratory homogenizer and centrifuged at 48,000 g to isolate membranes. The pellets were resuspended in harvest buffer plus 250 mM sucrose and stored at −70° C. […] Scintillation fluid was added and the plates were counted on a Topcount (Packard).

middle meningeal artery = conditions: rats, electrical stimulation of the dura mater, prior administration (Williamson et al. 1997); cited from earlier work
facial blood flow [3] = conditions: rat, trigeminal ganglion stimulation (Escott et al. 1995); cited from earlier work

T1 sequence (Q16602 23-461): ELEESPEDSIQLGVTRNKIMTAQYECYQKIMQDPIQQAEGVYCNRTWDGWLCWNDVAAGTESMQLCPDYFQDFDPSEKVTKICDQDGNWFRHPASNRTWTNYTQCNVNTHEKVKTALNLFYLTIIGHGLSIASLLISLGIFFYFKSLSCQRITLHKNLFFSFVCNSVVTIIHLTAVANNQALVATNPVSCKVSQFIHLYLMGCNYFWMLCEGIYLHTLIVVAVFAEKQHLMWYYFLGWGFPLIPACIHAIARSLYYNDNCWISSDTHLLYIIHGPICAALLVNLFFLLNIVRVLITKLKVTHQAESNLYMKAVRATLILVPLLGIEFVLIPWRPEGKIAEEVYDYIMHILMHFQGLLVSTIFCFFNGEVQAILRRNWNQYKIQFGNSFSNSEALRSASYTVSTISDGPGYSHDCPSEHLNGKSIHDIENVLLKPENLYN
T1 sequence (O60894 27-148): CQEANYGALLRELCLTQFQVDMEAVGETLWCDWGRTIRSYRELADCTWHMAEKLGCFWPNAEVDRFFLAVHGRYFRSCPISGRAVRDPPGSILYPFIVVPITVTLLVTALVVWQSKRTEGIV

In the case of `NCCCC[C@H](NC(=O)[C@@H](Cc1cc(Br)c(O)c(Br)c1)NC(=O)N1CCC(N2Cc3ccccc3NC2=O)CC1)C(=O)N1CCN(c2ccncc2)CC1` [BIBN4096BS], the “effectiveness in treating acute attacks of migraine” value (migraine; clinical trials (Olesen et al. 2004)) is given as “effective in treating acute attacks of migraine” and the “effect on increase in facial blood flow” value (facial blood flow [1]) is given as “could be blocked”.

With `C[C@@H]1[C@H](c2c(F)ccc(F)c2F)C[C@H](NC(=O)c2cnc3c(c2)C[C@@]2(C3)C(=O)Nc3ncc(F)cc32)C(=O)N1CC(F)(F)F` [Example 33, (6S)-5′-Fluoro-N-[(3S,5S,6R)-6-methyl-2-oxo-1-(2,2,2-trifluoroethyl)-5-(2,3,6-trifluorophenyl)piperidin-3-yl]-2′-oxo-1′,2′,5,7-tetrahydrospiro[cyclopenta[b]pyridine-6,3′-pyrrolo[2,3-b]pyridine]-3-carboxamide hydrochloride] the pKi [2] was 10.96.

With `C[C@@H]1[C@H](c2cc(F)cc(F)c2F)C[C@H](NC(=O)c2cnc3c(c2)C[C@@]2(C3)C(=O)Nc3ncc(C#N)cc32)C(=O)N1CC(F)(F)F` [Example 34] the pKi [2] was 10.18.

In the case of `O=C(N[C@@H]1CC[C@@H](c2cccc(F)c2F)CN(CC(F)(F)F)C1=O)N1CCC(n2c(=O)[nH]c3ncccc32)CC1` [telcagepant], the antimigraine effectiveness (migraine; phase III clinical trials (Ho et al. 2008; Connor et al. 2009)) is given as “shown antimigraine effectiveness”.

In the case of “CGRP(8-37) (VTHRLAGLLSRSGGVVKNNFVPTNVGSKAF-NH2; ends and bridges not checked; UniProt P06881 90-119, looked up, fragment) [a peptide CGRP receptor antagonist]”, the “effect on increase of middle meningeal artery diameter” value (middle meningeal artery) is listed as “blocked” and the “effect on increased facial blood flow” value (facial blood flow [3]) is listed as “inhibited”.
